Test results published in ChEMBL document CHEMBL1156829 (Proc Natl Acad Sci U S A, 2008).
Values joined by “and” are separate entries in the source; they are usually repeats but may differ in a detail not shown here. Identical values can stand only once.

How the values were obtained:
[1] = NOVARTIS: Cytotoxicity against human hepatocellular carcinoma cell line (Huh7); type: toxicity, cell-based, Huh-7; settings: Huh7 cells (hepatocellular carcinoma cell line)
Plasmodium falciparum [2] = assay: NOVARTIS: Inhibition of Plasmodium falciparum W2 (drug-resistant) proliferation in erythrocyte-based infection assay; type: functional, organism-based; settings: read-out: EC50
Plasmodium falciparum [3] = assay: NOVARTIS: Inhibition of Plasmodium falciparum 3D7 (drug-susceptible) proliferation in erythrocyte-based infection assay; type: functional, organism-based

SMILES	CC50 [1]	EC50 (Plasmodium falciparum [2]; Plasmodium falciparum, W2)	EC50 (Plasmodium falciparum [3]; Plasmodium falciparum, 3D7)	EC50 (Plasmodium falciparum [2])	EC50 (Plasmodium falciparum [3])
O=C1CN(C(=O)CCC2CCCCC2)C(c2ccc(F)cc2)c2cc(F)ccc2N1 (centres undefined)	64400 nM	365 nM	566 nM		
COc1ccc(/C=C\c2cc[n+](C)cc2)cc1OC	> 10000 nM	> 1250 nM	1110 nM		
COc1cc(C=C(C#N)c2nc3ccccc3[nH]2)ccc1OCc1ccccc1F	> 100000 nM	937 nM	1380 nM		
Cc1ccc(NC2=C(N3CCCCC3)C(=O)c3ccccc3C2=O)cc1	18500 nM	77.5 nM	131 nM		
O=C(CSc1nc2ccccc2c(=O)n1CCCN1CCOCC1)Nc1cccc(S(=O)(=O)N2CCCCCC2)c1	62100 nM	1180 nM	470 nM		
CC(C)N(CC(=O)Nc1cc(C(C)(C)C)nn1-c1ccc(Cl)cc1)C(=O)c1cccc2ccccc12	> 10000 nM	> 1240 nM	1210 nM		
O=c1[nH]n(CC2COC(c3ccccc3)O2)c(=O)c2ccccc12 (centres undefined)	> 100000 nM	488 nM	678 nM		
Cc1ccc2[nH]c3c(NCCN(C(C)C)C(C)C)ncnc3c2c1	16300 nM	420 nM	306 nM		
O=S(=O)(c1ccccc1)N1CCN(CC2CNCCO2)CC1 (centres undefined)	3220 nM	332 nM	767 nM		
C=CCn1c(=N)n(CC(O)c2ccc(Cl)c(Cl)c2)c2ccccc21 (centres undefined)	14700 nM	58.3 nM	140 nM		
Cc1nc(-c2ccccc2)nc(C(=O)N2CCN(C(=O)/C=C/c3ccccc3)C(C)C2)c1C(=O)OC(C)C (centres undefined)	> 10000 nM	621 nM	> 1250 nM		
C=CCn1c(SCC(=O)c2cc(C)n(-c3ccccc3F)c2C)nc2sc3c(c2c1=O)CCCC3	> 10000 nM	> 180 nM	> 1250 nM		
CCOC(=O)C1=C(C)NC2=C(C(=O)CC(c3ccc(Cl)cc3)C2)C1c1ccccc1Cl (centres undefined)	> 100000 nM	40.8 nM	44.2 nM		
O=C(C1CC1)N1CCc2cc(Br)cc(S(=O)(=O)N3CCCC3)c21	> 100000 nM	1120 nM	929 nM		
CN(/C=C/C1=[N+](C)c2ccc(Cl)cc2C1(C)C)c1ccccc1	> 92800 nM			900 nM and 2040 nM	1360 nM and 455 nM
Cc1ccc(Nc2nc(NCCO)c3ccccc3n2)cc1C	4900 nM	108 nM	175 nM		
O=[N+]([O-])c1ccc(-c2ccc(C=NNc3ccccn3)o2)cc1	> 100000 nM	2300 nM	2430 nM		
O=C(Nc1ccc(Cl)cc1)c1c2c(nc3ccccc13)-c1ccccc1CC2	> 100000 nM	338 nM	410 nM		
CCOC(=O)CCS(=O)(=O)c1ccc(Br)cc1	> 10000 nM	> 1460 nM	237 nM		
COC(=O)c1c(N)n(-c2ccccc2OC)c2nc3ccccc3nc12	> 100000 nM	2700 nM	> 12500 nM		
COc1cccc(NC(=O)c2ccc(NCCCN3CC(C)CC(C)C3)c([N+](=O)[O-])c2)c1 (centres undefined)	> 100000 nM	509 nM	275 nM		
CC1(C)C=C(C23C=CC(C2)C2C(=C4CC(C)(C)NC(C)(C)C4)C=CC23)CC(C)(C)N1 (centres undefined)	44700 nM	1970 nM	2230 nM		
COc1ccc(C2CC(=O)C3=C(C2)NC(C)=C(C(=O)OC2CCCC2)C3c2ccc(Cl)cc2Cl)cc1 (centres undefined)	> 100000 nM	34.7 nM	126 nM		

SMILES	CC50 [1]	EC50 (Plasmodium falciparum [2]; Plasmodium falciparum, W2)	EC50 (Plasmodium falciparum [3]; Plasmodium falciparum, 3D7)	EC50 (Plasmodium falciparum [2])	EC50 (Plasmodium falciparum [3])
COc1cc(CN(C)c2ccc3nc(N)nc(N)c3c2)cc(OC)c1OC	> 10000 nM	1190 nM	7.31 nM		
Cc1ccccc1CN1CCN(C/C=C/c2ccccc2)CCC1=O	> 10000 nM	26.7 nM	> 1250 nM		
COc1cc(C(=O)N2N=C(c3c(-c4ccccc4)c4cc(Br)ccc4[nH]c3=O)CC2c2cccc([N+](=O)[O-])c2)cc(OC)c1OC (centres undefined)	> 100000 nM	288 nM	362 nM		
OC(CNC1CCCCC1)Cn1c2ccc(Br)cc2c2cc(Br)ccc21 (centres undefined)	6060 nM	102 nM	451 nM		
COc1cc(C=C(C#N)c2nc3ccccc3[nH]2)ccc1OCc1ccccc1	> 100000 nM	1590 nM	766 nM		
CCOC(=O)c1ccc(N(C(=O)CSCC(=O)Nc2cc(C)on2)C(C(=O)NC2CCCCC2)c2ccc(O)c(O)c2)cc1 (centres undefined)	> 10000 nM	> 1250 nM	> 316 nM		
Cc1cnc(Sc2ccccn2)c([N+](=O)[O-])c1	72900 nM	6130 nM	> 12500 nM		
C=CCn1c(=O)c(C(=O)NCC[N+](CC)(CC)CC=C)c(O)c2ccccc21	> 100000 nM	385 nM	1130 nM		
C[C@@H]1C[C@@H]([C@H](O)CC2CC(=O)NC(=O)C2)C(=O)[C@@H](C)C1 [CYCLOHEXIMIDE]	> 100000 nM	182 nM	114 nM		
Cc1ccc(-n2c(SCc3cccc4ccccc34)nc3sc4c(c3c2=O)CCN(C)C4)cc1	> 100000 nM	3300 nM	> 6520 nM		
O=C1OC(c2ccccc2)=NC1=C(Cl)Cl	> 10000 nM	> 1250 nM	> 1160 nM		
COc1ccc([N+](=O)[O-])cc1N(CC1CO1)S(=O)(=O)c1ccc(C)cc1 (centres undefined)	> 100000 nM	6640 nM	> 12500 nM		
COc1ccc(Cn2cccc(C(=O)Nc3ccc(OC)cc3)c2=O)cc1	42500 nM	3110 nM	> 12500 nM		
O=C(c1ccccc1)N1CCN(c2ccccc2NC(=O)C(Cl)(Cl)Cl)CC1	> 100000 nM	425 nM	538 nM		
COc1cc(OC)cc(-n2nc(C(=O)NC3CCCCC3)c3ccccc3c2=O)c1	> 10000 nM	> 1220 nM	> 1250 nM		
CC(C)N1CCCC(C(=O)Nc2ccc(-c3nc4ccccc4[nH]3)cc2)C1 (centres undefined)	> 10000 nM	593 nM	969 nM		
COc1cc(NC(=O)C=Cc2ccccc2Cl)cc(OC)c1OC	47800 nM	302 nM	547 nM		
COc1ccc(Nc2nc(NCc3ccco3)c3ccccc3n2)cc1	2970 nM	421 nM	253 nM		
CCOC(=O)C1=C(C)N=c2sc(=Cc3cc(Br)ccc3O)c(=O)n2C1c1ccc(OC)c(OC)c1 (centres undefined)	> 100000 nM	814 nM	2100 nM		
CCCCc1ccc(C(=O)NCCCCNc2ccnc3cc(Cl)ccc23)cc1	> 10000 nM	311 nM	221 nM		
CCN(CC)CCCC(C)Nc1ccnc2cc3ccccc3cc12 (centres undefined)	21300 nM	933 nM	90.1 nM		
Cc1ccn2c(NC(C)(C)CC(C)(C)C)c(-c3ccccc3OC(=O)/C=C/c3ccc([N+](=O)[O-])cc3)nc2c1	> 10000 nM	63.7 nM	> 1390 nM		
c1ccc(CNc2nc(-c3ccccn3)nnc2-c2ccccc2)cc1	630 nM	326 nM	182 nM		

SMILES	CC50 [1]	EC50 (Plasmodium falciparum [2]; Plasmodium falciparum, W2)	EC50 (Plasmodium falciparum [3]; Plasmodium falciparum, 3D7)	EC50 (Plasmodium falciparum [2])	EC50 (Plasmodium falciparum [3])
O=[N+]([O-])c1ccc(N2CCN(c3nc(NCCc4c[nH]c5ccccc45)c4ccccc4n3)CC2)cc1	14300 nM	1980 nM	171 nM		
CCCCc1ccc(Nc2ncnc3sc4c(c23)CCCC4)cc1	> 100000 nM	3390 nM	11400 nM		
c1ccc2c(NCCc3c[nH]c4ccccc34)c3ccccc3nc2c1	7080 nM	31.6 nM	86 nM		
CCCCC(CC)C(=O)N(CCCC(C)Nc1cc(OC)cc2cccnc12)Cc1ccc(OC)c(OC)c1 (centres undefined)	> 10000 nM	328 nM	442 nM		
CCCCCCCCOC(=O)NCCCCCCNC(=O)OCCCCCCCC	> 100000 nM	4190 nM	> 12500 nM		
Oc1ccc(Br)c(C(Nc2ccccn2)c2ccc3cccnc3c2O)c1 (centres undefined)	15700 nM	281 nM	555 nM		
CCCc1cc2c(=O)c(-c3cc4ccccc4o3)coc2cc1OC(C)C(=O)OCC (centres undefined)	> 10000 nM	> 1250 nM	> 1170 nM		
O=C(Nc1ccc(C2=NCCN2)cc1)Nc1cccc(C(=O)Nc2ccc(C3=NCCN3)cc2)c1	> 10000 nM	211 nM	108 nM		
O=C(O)c1c[nH]c2cc(N3CCCCCC3)c(F)cc2c1=O	> 100000 nM	> 12500 nM	> 9800 nM		
CC1CCCC(NC(=O)C2N(CCN3CCCCC3C)C(=O)C3C(C(=O)Nc4cccc(Cl)c4)C4C=CC32O4)C1C (centres undefined)	47700 nM	4610 nM	> 10400 nM		
CS/C(Cl)=C(/NC(C)=O)[P+](c1ccccc1)(c1ccccc1)c1ccccc1.[O-][Cl+3]([O-])([O-])[O-]	> 10000 nM	100 nM	115 nM		
OC(CN1CCN(Cc2ccccc2)CC1)Cn1c2ccc(Br)cc2c2cc(Br)ccc21 (centres undefined)	29000 nM	57.3 nM	296 nM		
Clc1ccc2[nH]c3c(NCCCN4CCOCC4)ncnc3c2c1	31200 nM	152 nM	109 nM		
CCN(CC)CCNc1nc2cc(OC)c(OC)cc2c2nc(-c3ccccc3)nn12	77200 nM	1800 nM	1670 nM		
O=C(c1cc2cc(Br)ccc2o1)N1CCc2c([nH]c3ccccc23)C1c1ccc(Cl)cc1 (centres undefined)	> 100000 nM	226 nM	887 nM		
COc1ccc2nc(-c3ccccc3)cc(O)c2c1	835 nM	314 nM	411 nM		
CC(CCCC(C)(C)O)Nc1cncc(-c2ccc(C(N)=O)cc2)n1 (centres undefined)	> 10000 nM	> 1200 nM	> 1250 nM		
O=C(Cn1c2ccccc2c(=O)c2ccc(Cl)cc21)Nc1cccc(Cl)c1	> 10000 nM	589 nM	934 nM		
Oc1ccc(-c2ccc3c(c2)OCO3)cc1CNCC1(N2CCCCC2)CCCCC1	> 100000 nM	35.4 nM	291 nM		
O=C(NC(C(=O)c1ccccc1)N1CCCCC1)c1ccco1 (centres undefined)	> 10000 nM	> 1760 nM	> 831 nM		
CC(C)CCN(CCC(C)C)CC(O)Cn1c2ccc(Cl)cc2c2cc(Cl)ccc21 (centres undefined)	> 100000 nM	82.8 nM	292 nM		
CCC(=O)Oc1ccccc1-c1nc2ccccn2c1NC(C)(C)CC(C)(C)C	1650 nM	34.9 nM	743 nM		
